Patent US20090306392A1, “GSM INTERMEDIATES” (priority 2007, published 2009)

system: γ-secretase; experiment: Screening for γ-secretase-modulating activity in SKNBE2 cells carrying APP 695-wild type; format: cell-based; conditions: 0.3 uM; SKNBE2 cells carrying the APP 695-wild type

Compound | % @ 0.3 uM (WTAPP) [% @ 0.3 uM]
CC(C)CC(C(=O)O)c1cc(-c2ccc(C(F)(F)F)cc2)cc(C2CCN(Cc3ccc(C(F)(F)F)cc3)CC2)c1 (centres unmarked) [Example 31, 4-Methyl-2-{4′-trifluoromethyl-5-[1-(4-trifluoromethyl-benzyl)-piperidin-4-yl]-biphenyl-3-yl}-pentanoic Acid] | 8
CC(C)CCC(c1ccc(C(F)(F)F)cc1)N1CCCC(c2cc(-c3ccc(C(F)(F)F)cc3)cc([C@@H](CC(C)C)C(=O)O)c2)C1 (single isomer, unassigned) [Example 37, (R*)4-Methyl-2-(5-{1-[4-methyl-1-(4-trifluoromethyl-phenyl)-pentyl]-piperidin-3-yl}-4′-trifluoromethyl-biphenyl-3-yl)-pentanoic Acid] | 44
CC(C)CC(C(=O)O)c1cc(-c2ccc(C(F)(F)F)cc2)cc(N(C)c2ccc(C(F)(F)F)cc2)c1 (centres unmarked) [Example 13, 4-Methyl-2-{5-[methyl-(4-trifluoromethyl-phenyl)-amino]-4′-trifluoromethyl-biphenyl-3-yl}-pentanoic Acid] | 21

same assay, conditions: 3 uM; SKNBE2 cells carrying the APP 695-wild type

Compound | inhibition @ 3 uM (WTAPP) [% inhibition @ 3 uM]
CC(C)CC(C(=O)O)c1cc(Nc2cc(F)cc(F)c2)cc(-c2ccc(C(F)(F)F)cc2)c1 (centres unmarked) [Example 9, 2-[5-(3,5-Difluoro-phenylamino)-4′-trifluoromethyl-biphenyl-3-yl]-4-methyl-pentanoic Acid] | 73
CC(C)CC(C(=O)O)c1cc(Oc2cccc(C(C)C)c2)cc(-c2ccc(C(F)(F)F)cc2)c1 (centres unmarked) [Example 16, 2-[5-(3-Isopropyl-phenoxy)-4′-trifluoromethyl-biphenyl-3-yl]-4-methyl-pentanoic Acid] | 64

same assay, conditions: SKNBE2 cells carrying the APP 695-wild type; read-out: EC 50 WTAPP

Compound | EC50 [nM]
CC(C)CC(C(=O)O)c1cc(C(=O)c2cc(Cl)cc(Cl)c2)cc(-c2ccc(C(F)(F)F)cc2)c1 (centres unmarked) [Example 22, 2-[5-(3,5-Dichloro-benzoyl)-4′-trifluoromethyl-biphenyl-3-yl]-4-methyl-pentanoic Acid] | 710
CC(C)CCC(c1ccc(C(F)(F)F)cc1)N1CCC(c2cc(-c3ccc(C(F)(F)F)cc3)cc(C(CC(C)C)C(=O)O)c2)CC1 (centres unmarked) [Example 32, 4-Methyl-2-(5-{1-[4-methyl-1-(4-trifluoromethyl-phenyl)-pentyl]-piperidin-4-yl}-4′-trifluoromethyl-biphenyl-3-yl)-pentanoic Acid] | 2080
CC(C)C[C@@H](C(=O)O)c1cc(OCc2cc(F)cc(F)c2)cc(-c2ccc(C(F)(F)F)cc2)c1 [Example 1, (R)2-[5-(3,5-Difluoro-benzyloxy)-4′-trifluoromethyl-biphenyl-3-yl]-4-methyl-pentanoic Acid] | 530
CC(C)CC(C(=O)O)c1cc(NC(=O)c2cccc(C(F)(F)F)c2)cc(-c2ccc(C(F)(F)F)cc2)c1 (centres unmarked) [Example 25, 4-Methyl-2-[4′-trifluoromethyl-5-(3-trifluoromethyl-benzoylamino)-biphenyl-3-yl]-pentanoic Acid] | 1790
CC(C)CC(C(=O)O)c1cc(Oc2cc(F)cc(C(F)(F)F)c2)cc(-c2ccc(C(F)(F)F)cc2)c1 (centres unmarked) [Example 18, 2-[5-(3-Fluoro-5-trifluoromethyl-phenoxy)-4′-trifluoromethyl-biphenyl-3-yl]-4-methyl-pentanoic Acid] | 330
CC(C)CCC(Nc1cc(-c2ccc(C(F)(F)F)cc2)cc(C(CC(C)C)C(=O)O)c1)c1cc(F)cc(F)c1 (centres unmarked) [Example 34, 2-{5-[1-(3,5-Difluoro-phenyl)-4-methyl-pentylamino]-4′-trifluoromethyl-biphenyl-3-yl}-4-methyl-pentanoic Acid] | 330
CC(C)CC(C(=O)O)c1cc(-c2ccc(C(F)(F)F)cc2)cc(C2CCCC(C(F)(F)F)N2)c1 (centres unmarked) [Example 27, 4-Methyl-2-[4′-trifluoromethyl-5-(6-trifluoromethyl-piperidin-2-yl)-biphenyl-3-yl]-pentanoic Acid] | 700
4-Methyl-2-[4′-trifluoromethyl-5-(4-trifluoromethyl-phenylamino)-biphenyl-3-yl]-pentanoic Acid [Example 10] | 280
CCC(c1ccc(C(F)(F)F)cc1)N1CCCC(c2cc(-c3ccc(C(F)(F)F)cc3)cc([C@@H](CC(C)C)C(=O)O)c2)C1 (single isomer, unassigned) [Example 26, (R*)4-Methyl-2-(4′-trifluoromethyl-5-{1-[1-(4-trifluoromethyl-phenyl)-propyl]-piperidin-3-yl}-biphenyl-3-yl)-pentanoic Acid] | 360
CCC(c1ccc(C(F)(F)F)cc1)N1CCCC(c2cc(-c3ccc(C(F)(F)F)cc3)cc([C@H](CC(C)C)C(=O)O)c2)C1 (single isomer, unassigned) [Example 35, (S*)4-Methyl-2-(4′-trifluoromethyl-5-{1-[1-(4-trifluoromethyl-phenyl)-propyl]-piperidin-3-yl}-biphenyl-3-yl)-pentanoic Acid] | 590
CC(C)C[C@@H](C(=O)O)c1cc(OCc2ccc(F)cc2C(F)(F)F)cc(-c2ccc(C(F)(F)F)cc2)c1 [Example 3, (R)-2-[5-(4-fluoro-2-trifluoromethyl-benzyloxy)-4′-trifluoromethyl-biphenyl-3-yl]-4-methyl-pentanoic Acid] | 570

Further lines, results first:

EC50 [nM] | Compound
140 | CC(C)CC(C(=O)O)c1cc(-c2ccc(C(F)(F)F)cc2)cc(-c2ccc(OC(F)(F)F)c(F)c2)c1 (centres unmarked) [Example 6, 2-(3-Fluoro-4-trifluoromethoxy-4″-trifluoromethyl-[1,1′;3′,1″]terphenyl-5′-yl)-4-methyl-pentanoic Acid]
310 | CC(C)CC(C(=O)O)c1cc(OCc2cc(F)cc(F)c2)cc(-c2ccc(Cl)c(C(F)(F)F)c2)c1 (centres unmarked) [Example 4, 2-[4′-Chloro-5-(3,5-difluoro-2-benzyloxy)-3′-trifluoromethyl-biphenyl-3-yl]-4-methyl-pentanoic Acid]
170 | CC(C)CCN(c1ccc(C(F)(F)F)cc1)c1cc(-c2ccc(C(F)(F)F)cc2)cc(C(CC(C)C)C(=O)O)c1 (centres unmarked) [Example 14, 4-Methyl-2-{5-[(3-methyl-butyl)-(4-trifluoromethyl-phenyl)-amino]-4′-trifluoromethyl-biphenyl-3-yl}-pentanoic Acid]
140 | CC(C)CC(C(=O)O)c1cc(Oc2cc(F)cc(C(F)(F)F)c2)cc(-c2ccc(Cl)c(C(F)(F)F)c2)c1 (centres unmarked) [Example 17, 4-Methyl-2-[4′-chloro-3′-trifluoromethyl-5-(3-fluoro-5-trifluoromethylphenoxy)-biphenyl-3-yl]-pentanoic Acid]
230 | CC(C)CCC(Oc1cc(-c2ccc(C(F)(F)F)cc2)cc(C(CC(C)C)C(=O)O)c1)c1cc(F)cc(F)c1 (centres unmarked) [Example 21, 2-{5-[1-(3,5-Difluoro-phenyl)-4-methyl-pentyloxy]-4′-trifluoromethyl-biphenyl-3-yl}-4-methyl-pentanoic Acid]
64 | CC(C)CC(C(=O)O)c1cc(NC2CCC(C(C)(C)C)CC2)cc(-c2ccc(C(F)(F)F)cc2)c1 (centres unmarked) [Example 33, 2-[5-(4-tert-Butyl-cyclohexylamino)-4′-trifluoromethyl-biphenyl-3-yl]-4-methyl-pentanoic Acid]
190 | CC(C)CCN(Cc1cc(F)cc(F)c1)c1cc(-c2ccc(C(F)(F)F)cc2)cc([C@@H](CC(C)C)C(=O)O)c1 [Example 40, 2-{5-[(3,5-Difluoro-benzyl)-(3-methyl-butyl)-amino]-4′-trifluoromethyl-biphenyl-3-yl}-4-methyl-pentanoic Acid]
150 | CC(C)C[C@@H](C(=O)O)c1cc(Nc2cc(C(F)(F)F)ccc2C(F)(F)F)cc(-c2ccc(C(F)(F)F)cc2)c1 [Example 12, (R)2-[5-(2,5-Bis-trifluoromethyl-phenylamino)-4′-trifluoromethyl-biphenyl-3-yl]-4-methyl-pentanoic Acid]
270 | CC(C)CCN(Cc1cc(-c2ccc(C(F)(F)F)cc2)cc(C(CC(C)C)C(=O)O)c1)Cc1cc(F)c(F)c(F)c1 (centres unmarked) [Example 29, 4-Methyl-2-(5-{[(3-methyl-butyl)-(3,4,5-trifluoro-benzyl)-amino]-methyl}-4′-trifluoromethyl-biphenyl-3-yl)-pentanoic Acid]
320 | CC(C)CC(C(=O)O)c1cc(-c2ccc(C(F)(F)F)cc2)cc(-c2ccc(C(F)(F)F)cn2)c1 (centres unmarked) [Example 20, 4-Methyl-2-[4′-trifluoromethyl-5-(5-trifluoromethyl-pyridin-2-yl)-biphenyl-3-yl]-pentanoic Acid]
140 | CC(C)CC(C(=O)O)c1cc(/C=C/c2ccc(-c3ccccc3)cc2)cc(-c2ccc(C(F)(F)F)cc2)c1 (centres unmarked) [Example 23, 2-[5-(2-Biphenyl-4-yl-vinyl)-4′-trifluoromethyl-biphenyl-3-yl]-4-methyl-pentanoic Acid]
210 | CC(C)CC(C(=O)O)c1cc(CCc2ccc(-c3ccccc3)cc2)cc(-c2ccc(C(F)(F)F)cc2)c1 (centres unmarked) [Example 24, 2-[5-(2-Biphenyl-4-yl-ethyl)-4′-trifluoromethyl-biphenyl-3-yl]-4-methyl-pentanoic Acid]
190 | CC(C)CC(C(=O)O)c1cc(-c2ccc(C(F)(F)F)cc2)cc(-c2cc(F)cc(F)c2)c1 (centres unmarked) [Example 5, 2-(3,5-Difluoro-4″-trifluoromethyl-[1,1′;3′,1″]terphenyl-5′-yl)-4-methyl-pentanoic Acid]
220 | CC(C)CCC(Nc1cc(-c2ccc(C(F)(F)F)cc2)cc(C(CC(C)C)C(=O)O)c1)c1cc(C(F)(F)F)cc(C(F)(F)F)c1 (centres unmarked) [Example 39, 2-{5-[1-(3,5-Bis-trifluoromethyl-phenyl)-4-methyl-pentylamino]-4′-trifluoromethyl-biphenyl-3-yl}-4-methyl-pentanoic Acid]
110 | CC(C)CCN1C(c2cc(-c3ccc(C(F)(F)F)cc3)cc(C(CC(C)C)C(=O)O)c2)CCCC1C(F)(F)F (centres unmarked) [Example 28, 4-Methyl-2-{5-[1-(3-methyl-butyl)-6-trifluoromethyl-piperidin-2-yl]-4′-trifluoromethyl-biphenyl-3-yl}-pentanoic Acid]
150 | CC(C)CCN(c1ccc(Cl)cc1)c1cc(-c2ccc(C(F)(F)F)cc2)cc(C(CC(C)C)C(=O)O)c1 (centres unmarked) [Example 15, 2-{5-[(4-Chloro-phenyl)-(3-methyl-butyl)-amino]-4′-trifluoromethyl-biphenyl-3-yl}-4-methyl-pentanoic Acid]
